One data set in a line: physchem. The note with it: aqueous with cosolvent or surfactant or cyclodextrin.
Data set [1] deals with diabetic Sprague-Dawley rats. As to the kind of experiment: Retinal vascular permeability in streptozotocin-diabetic rats. The class given is in vivo, rat. The conditions noted are these: 25 or 75 mg/kg IP, 5 days per week, Day 45 to Day 87; inner plexiform and outer nuclear layers. As for the experimental part: FIG. 9. Effects of ABC 294640 on retinal vascular permeability in diabetic rats. From Day 45 through Day 87, Control (open bars) and Diabetic rats were treated with solvent (shaded bars) or ABC294640 at 25 mg/kg (horizontal-hatched bars) or 75 mg/kg (cross-hatched bars). On Day 87, retinal leakage in each animal was measured. Values represent the mean±sd for 3-5 rats per group.
Male Sprague-Dawley rats weighing 150-175 g were used. Diabetes was produced by intraperitoneal injection of streptozotocin (65 mg/kg in citrate buffer) after overnight fasting. Sham-injected non-diabetic animals were also carried as controls. Blood glucose was measured three days post-injection and animals with blood glucose over 250 mg/dL were used as diabetic rats for the study. Blood glucose levels and body weights were monitored weekly throughout the study. On Day 45, retinal vascular permeability was measured in a group of control and diabetic rats (Antonetti et al., Diabetes 47: 1953 (1998), Barber et al., Invest Ophthalmol Vis Sci 46: 2210 (2005)). […] Sections were dewaxed and viewed with an Olympus OM-2 fluorescence microscope fitted with a Sony CLD video camera. Fluorescence intensities of digital images were measured using Leica Confocal Software (Version 2.61, build 1538, LCS Lite, 2004). […]

Data set [2] has as its system VEGF-induced vascular permeability. The experiment in a line: VEGF-induced vascular leakage (Miles assay) in nude mice. The class given is in vivo, mouse. The note with it: FIG. 7B.
The next data set has as its system female DBA/1 mice. As to the kind of experiment: Collagen-Induced Arthritis (CIA) model in mice. Format: in vivo, mouse. The conditions noted are these: 100 mg/kg orally, Day 12.
In another data set the test system is sphingosine kinase (SK). The experiment in a line: Screening assay for inhibitors of SK. Format: biochemical, human. The note with it: library screen. An excerpt:
An assay for screening for inhibitors of SK has been established (French et al., Cancer Res 63: 5962 (2003)). […] Representative active compounds from four chemotypes of SK inhibitors, designated herein as Compounds I-IV, are shown in FIG. 1.

The test system of the next data set is male Lewis rats. As to the kind of experiment: Adjuvant-Induced Arthritis model in rats. Format: in vivo, rat. The conditions noted are these: Day 10. As for the experimental part:
FIG. 11. Effects of ABC294640 on disease progression in the adjuvant-induced arthritis model in rats. Male Lewis rats were injected subcutaneously with Mycobacterium butyricum, and symptoms of immune reactivity were present after 2 weeks. Responsive rats were randomized into treatment groups (n=8 per group), and received oral daily doses of: solvent alone (0.375% Tween-80); 100 mg/kg ABC294640; 35 mg/kg ABC294640; or 5 mg/kg ABC294640, or intraperitoneal injections of indomethacin (5 mg/kg) every other day. The severity of disease in each animal was quantified by measurement of the hind paw thickness. Panel A. Time course of hind paw arthritic response. Panel B. Final day (Day 10) hind paw thickness measurements. Panel C. Change in paw thickness of respective group versus non-arthritic rats (naive) at Day 10. *,p<0.05; ***, p<0.001 versus solvent alone group.
Adjuvant-induced arthritis is another widely used assay that recapitulates many features of human rheumatoid arthritis, and so is useful in the evaluation of new drug candidates. Age- and weight-matched male Lewis rats (150-170 g) were injected subcutaneously in the tail with 1 mg of Mycobacterium butyricum (Difco, killed dried) suspended in 0.1 ml of light mineral oil. Symptoms of immune reactivity were present after 2 weeks. Responsive rats were randomized into treatment groups, and received oral daily doses (1 ml) of: solvent alone (0.375% Tween-80); 100 mg/kg ABC294640; 35 mg/kg ABC294640; or 5 mg/kg ABC294640, or intraperitoneal injections of indomethacin (5 mg/kg) every other day as a positive control. The severity of disease in each animal was quantified by measurement of the hind paw thickness. As above, a reduction of 30% or greater was considered to be an indication of anti-inflammatory activity in this model.

A further data set is described as follows: Pharmacokinetics in mice. The class given is in vivo, mouse. The note with it: for AUC(0-inf) / Cmax / Tmax / half-life: female, Swiss-Webster, mouse, whole blood, mice. As for the experimental part:
Mice were anesthetized and blood was removed by cardiac puncture at time points ranging from 1 minute to 8 hours. […] Control blood samples were spiked with known amounts of internal standard and analyte to identify compound-specific peaks and to develop standard curves for quantification. Pharmacokinetic parameters were calculated using the WINNONLIN analysis software package (Pharsight).

Data set [3] concerns JC murine mammary adenocarcinoma. The experiment in a line: JC mammary adenocarcinoma syngenic tumor model in Balb/C mice. As for the experimental part:
FIG. 12. […] Balb/c female mice were injected subcutaneously with JC cells suspended in PBS. […] Whole body weight and tumor volume measurement were performed for up to 18 days. *p<0.05. Inset: Averaged body weights of mice from each group during course of study.
FIG. 13. […] Balb/c female mice were injected s.c. with JC cells suspended in PBS.
We determined the antitumor activity of representative SK inhibitors in a syngenic mouse tumor model that uses a transformed murine mammary adenocarcinoma cell line (JC, ATCC Number CRL-2116) and Balb/C mice (Charles River) (Lee et al., Oncol Res 14: 49 (2003)). Animals were housed under 12 hour light/dark cycles, with food and water provided ad libitum. Tumor cells (1×10^6) were implanted subcutaneously, and tumor volume was calculated using the equation: (L×W^2)/2. Upon detection of tumors, mice were randomized into treatment groups.

The test system of data set [4] is female Swiss-Webster mice. The note with it: mouse, in vivo.
Procedure: (§1) The compounds are soluble to at least 15 mg/ml in 50% dimethylsulfoxide:50% phosphate-buffered saline (DMSO:PBS) for intraperitoneal (IP) administration or Polyethylene glycol-400 (PEG400) for oral dosing.
A further data set deals with endogenous SK. The experiment in a line: Cellular SK activity in bovine retinal endothelial cells. The conditions noted are these: 4 hours. Format: cell-based. As for the experimental part: FIG. 3. Inhibition of cellular SK activity in RECs. Bovine retinal endothelial cells were incubated with 20 μM dimethylsphingosine (DMS) or 25 μg/mL Compound I, Compound II or Compound V (approximately 80 μM for each compound) for 4 hours before the addition of 0.4 μCi of [^3H]sphingosine. After 15 minutes, cells were lysed and extracted with chloroform: methanol. The total amounts of [^3H]sphingosine in the organic phase and [^3H]S1P in the aqueous phase were then determined. Values represent the mean±SD of duplicate samples in a typical experiment.
Cellular S1P formation assay. Cells were grown to confluency in 24-well tissue culture plates and serum-starved for 24 hours as described above. Cells were then treated with 1% DMSO (as the drug vehicle), 20 μM dimethylsphingosine, or the indicated concentration of an SK inhibitor for 4 hours. The cells were then incubated with [^3H]sphingosine for 15 minutes, and the formation of [^3H]S1P was measured as previously described (French et al., Cancer Res 63: 5962 (2003)). In some assays, the cells were serum-starved for 24 hours and then treated with VEGF (50 ng/mL) alone or in the presence of an SK inhibitor for an additional 12 hours. [^3 H]Sphingosine was then added for 15 minutes, and its conversion to [^3H]S1P was measured as indicated above.
A cell-based assay in which the phosphorylation of exogenously added [^3H]sphingosine to [^3H]S1P by endogenous SK can be quantified (French et al., Cancer Res 63: 5962 (2003)) was used to evaluate the effects of test compounds on the activity of SK in intact cells. In this assay, cells are incubated with [^3 H]sphingosine for an appropriate period of time, and then [^3H]sphingosine and [^3H]S1P (formed by endogenous SK activity) are separated by extraction and levels of both species are determined by scintillation counting. We have used a number of cell lines in this assay to confirm that the SK inhibitors are active in multiple intact cell systems. For example, human umbilical vein endothelial cells (HUVECs) are commonly used as a model of human vasculature. […] Similarly, the enzymatic activity of SK in bovine RECs, and its sensitivity to SK inhibitors were assessed. […] Each of inhibitors of SK (Compound I, Compound II and Compound V) was also active against the endogenous SK activity in the bovine RECs.

“And” between values parts separate entries of the source, which are not always exact repeats. Equal values may be shown once.

Procedure for physchem: as §1

As for `O=C(NCc1ccncc1)C12CC3CC(C1)CC(c1ccc(Cl)cc1)(C3)C2` [ABC294640], the solubility in the data set “physchem” was at least 15 mg/mL. For the same compound, in data set [1], the “FITC-BSA leakage into the retina versus untreated diabetic rats” value is recorded as “substantially reduced”. Moreover, the “VEGF-promoted dye leakage into mouse skin” value in [2] (75 mg/kg intraperitoneal) is “suppressed”. Further, the “VEGF-promoted dye leakage into mouse skin” value in data set [2] (100 mg/kg oral gavage) is recorded as “suppressed”. In the data set on female DBA/1 mice (6 days per week), the “reduction in clinical score versus vehicle” value came to 67% and the “reduction in the increase in hind paw thickness versus vehicle” value stood at 90%. In addition, the “histologic damage of tibiotarsal joints” value with female DBA/1 mice is “significantly reduced”. In the data set on sphingosine kinase (SK), the “inhibition of SK” value is “inhibit SK”. Besides, in the data set on male Lewis rats (5 mg/kg oral daily), the “reduction in the arthritic response (hind paw thickness)” value (shortened to “reduction in the arthritic response”) turned out to be 13%. In the data set with male Lewis rats (35 mg/kg oral daily), the “reduction in the arthritic response” value came out at 42%. Also, the “reduction in the arthritic response” value in the data set with male Lewis rats (100 mg/kg oral daily) is 76%. Moreover, the “blood levels versus IC50 for inhibition of SK activity” value in the data set “Pharmacokinetics in mice” (during the entire study (up to 8 hours)) was “exceeded the IC50”. Moreover, in the data set “Pharmacokinetics in mice” (IV 50 mg/kg), the area under the curve AUC(0-inf) was 56900 ng·h/mL and 137 µM·h; the Cmax was 31100 ng/mL and 74 µM; the Tmax worked out at 0 h; the half-life was 1.4 h. For the same compound, in the data set “Pharmacokinetics in mice” (Oral 50 mg/kg), the AUC(0-inf) was 37500 ng·h/mL and 90.1 µM·h; the Cmax was 8000 ng/mL and 19 µM; the time of peak concentration (Tmax) came out at 0.25 h; the half-life was 4.5 h. In addition, the “inhibition of tumor growth” value in data set [3] (100 mg/kg orally on odd days, PEG400) was 69%. The “therapeutic index (nontoxic dose/antitumor activity)” value in data set [3] (female, Balb/c, mouse, in vivo) is recorded as “greater than 30”. For the same compound, the “toxicity to the tumor-bearing mice” value in data set [3] (mouse, in vivo) was “without toxicity”. Further, in [3] (oral, odd days, dose-response, FIG. 13), the “EC50 for inhibition of tumor growth” value is listed as “approximately 35 mg/kg”. This compound also yielded a nontoxic dose in data set [4] of 1000 mg/kg. In addition, in [4] (ip), the “dose with no immediate or delayed toxicity, acute” value was “at least 50 mg/kg”. In data set [4] (po), the “dose without noticeable toxicity” value is “at least 100 mg/kg”.

`O=C(NN=Cc1c(O)ccc2ccccc12)c1cc(-c2ccc3ccccc3c2)n[nH]1` [Compound I]: the “endogenous SK activity in bovine RECs” value in the data set with endogenous SK (25 μg/mL (approximately 80 μM)) is “active”.

On to `O=C1C(=Cc2ccc(O)c(O)c2)Oc2ccccc21` [Compound V], for which the “endogenous SK activity in bovine RECs” value with endogenous SK (25 μg/mL (approximately 80 μM)) is recorded as “active”.

Turning to `CCCCCCCCCCCCC/C=C/[C@@H](O)[C@H](CO)N(C)C` [DMS, dimethylsphingosine, reference compound], the “endogenous SK activity in bovine RECs” value in the data set with endogenous SK (20 μM, positive control) is on record as “inhibition of SK”.

Values taken from US20060270631A1, “Methods for the treatment and prevention of angiogenic diseases” (priority 2005, published 2006).
